Source: PubChem BioAssay (NCI)
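Step 1: Grow cells in 96-well plates. Step 2: Expose to compound for 48 hours at 5 concentrations. Step 3: Interpolate endpoints linearly; if unreached, use highest concentration. GI50 = concentration required for 50% inhibition of growth. TGI marks complete inhibition of growth.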

Experiments:
Assay in all cases: growth of human tumour cells (NCI), 48 h
TK-10 renal = tested on: TK-10 renal
KM12 colon = tested on: KM12 colon
NCI/ADR-RES ovarian = tested on: NCI/ADR-RES ovarian
SK-MEL-28 melanoma = tested on: SK-MEL-28 melanoma
UACC-62 melanoma = tested on: UACC-62 melanoma
MDA-MB-231 breast = tested on: MDA-MB-231 breast
RXF 393 renal = tested on: RXF 393 renal
T-47D breast = tested on: T-47D breast
OVCAR-8 ovarian = tested on: OVCAR-8 ovarian
UACC-257 melanoma = tested on: UACC-257 melanoma
CAKI-1 renal = tested on: CAKI-1 renal
A498 renal = tested on: A498 renal
K-562 leukemia = tested on: K-562 leukemia
HCC-2998 colon = tested on: HCC-2998 colon
HL-60(TB) leukemia = tested on: HL-60(TB) leukemia
NCI-H522 lung = tested on: NCI-H522 lung
PC-3 prostate = tested on: PC-3 prostate
CCRF-CEM leukemia = tested on: CCRF-CEM leukemia
U251 CNS = tested on: U251 CNS
BT-549 breast = tested on: BT-549 breast
SW-620 colon = tested on: SW-620 colon
DU-145 prostate = tested on: DU-145 prostate
HCT-116 colon = tested on: HCT-116 colon
A549 NSCLC = tested on: A549 NSCLC
RPMI-8226 leukemia = tested on: RPMI-8226 leukemia
OVCAR-3 ovarian = tested on: OVCAR-3 ovarian
M14 melanoma = tested on: M14 melanoma
LOX IMVI melanoma = tested on: LOX IMVI melanoma
IGROV1 ovarian = tested on: IGROV1 ovarian
EKVX NSCLC = tested on: EKVX NSCLC
NCI-H23 lung = tested on: NCI-H23 lung
HT29 colon = tested on: HT29 colon
MOLT-4 leukemia = tested on: MOLT-4 leukemia
HOP-92 NSCLC = tested on: HOP-92 NSCLC
SK-MEL-2 melanoma = tested on: SK-MEL-2 melanoma
HCT-15 colon = tested on: HCT-15 colon
OVCAR-5 ovarian = tested on: OVCAR-5 ovarian
ACHN renal = tested on: ACHN renal
UO-31 renal = tested on: UO-31 renal
HS 578T breast = tested on: HS 578T breast
SK-OV-3 ovarian = tested on: SK-OV-3 ovarian
SF-539 CNS = tested on: SF-539 CNS
COLO 205 colon = tested on: COLO 205 colon
SF-268 CNS = tested on: SF-268 CNS
NCI-H460 lung = tested on: NCI-H460 lung
SK-MEL-5 melanoma = tested on: SK-MEL-5 melanoma
SN12C renal = tested on: SN12C renal
SF-295 CNS = tested on: SF-295 CNS
SNB-19 CNS = tested on: SNB-19 CNS
NCI-H226 lung = tested on: NCI-H226 lung
786-0 renal = tested on: 786-0 renal
HOP-62 NSCLC = tested on: HOP-62 NSCLC
MDA-MB-435 = tested on: MDA-MB-435
OVCAR-4 ovarian = tested on: OVCAR-4 ovarian
MALME-3M melanoma = tested on: MALME-3M melanoma
SR leukemia = tested on: SR leukemia
SNB-75 CNS = tested on: SNB-75 CNS
MCF7 breast = tested on: MCF7 breast

COc1cc2ncnc(Nc3ccc4c(cnn4Cc4ccccc4)c3)c2cc1OC
GI50 (TK-10 renal): 0.131 µM
TGI (TK-10 renal): > 25 µM
GI50 (KM12 colon): 18.7 µM
TGI (KM12 colon): > 25 µM
GI50 (NCI/ADR-RES ovarian): > 19.5 µM
TGI (NCI/ADR-RES ovarian): > 25 µM
GI50 (SK-MEL-28 melanoma): > 25 µM
TGI (SK-MEL-28 melanoma): > 25 µM
GI50 (UACC-62 melanoma): > 25 µM
TGI (UACC-62 melanoma): > 25 µM
GI50 (MDA-MB-231 breast): 7.13 µM
TGI (MDA-MB-231 breast): > 25 µM
GI50 (RXF 393 renal): 8.92 µM
TGI (RXF 393 renal): > 25 µM
GI50 (T-47D breast): 2.16 µM
TGI (T-47D breast): > 25 µM
GI50 (OVCAR-8 ovarian): > 17.5 µM
TGI (OVCAR-8 ovarian): > 25 µM
GI50 (UACC-257 melanoma): > 25 µM
TGI (UACC-257 melanoma): > 25 µM
GI50 (CAKI-1 renal): 0.385 µM
TGI (CAKI-1 renal): > 25 µM
GI50 (A498 renal): > 18.6 µM
TGI (A498 renal): > 25 µM
GI50 (K-562 leukemia): 7.27 µM
TGI (K-562 leukemia): > 19.7 µM
GI50 (HCC-2998 colon): > 25 µM
TGI (HCC-2998 colon): > 25 µM
GI50 (HL-60(TB) leukemia): 12.5 µM
TGI (HL-60(TB) leukemia): > 21 µM
GI50 (NCI-H522 lung): 0.724 µM
TGI (NCI-H522 lung): > 25 µM
GI50 (PC-3 prostate): > 18.2 µM
TGI (PC-3 prostate): > 25 µM
GI50 (CCRF-CEM leukemia): > 18.1 µM
TGI (CCRF-CEM leukemia): > 25 µM
GI50 (U251 CNS): > 19.2 µM
TGI (U251 CNS): > 25 µM
GI50 (BT-549 breast): 16.5 µM
TGI (BT-549 breast): > 25 µM
GI50 (SW-620 colon): > 25 µM
TGI (SW-620 colon): > 25 µM
GI50 (DU-145 prostate): > 25 µM
TGI (DU-145 prostate): > 25 µM
GI50 (HCT-116 colon): > 21.3 µM
TGI (HCT-116 colon): > 25 µM
GI50 (A549 NSCLC): > 17.9 µM
TGI (A549 NSCLC): > 25 µM
GI50 (RPMI-8226 leukemia): 11.2 µM
TGI (RPMI-8226 leukemia): > 25 µM
GI50 (OVCAR-3 ovarian): 15.1 µM
TGI (OVCAR-3 ovarian): > 25 µM
GI50 (M14 melanoma): > 25 µM
TGI (M14 melanoma): > 25 µM
GI50 (LOX IMVI melanoma): > 19.4 µM
TGI (LOX IMVI melanoma): > 25 µM
GI50 (IGROV1 ovarian): 4.83 µM
TGI (IGROV1 ovarian): > 25 µM
GI50 (EKVX NSCLC): 0.0796 µM
TGI (EKVX NSCLC): > 25 µM
GI50 (NCI-H23 lung): > 25 µM
TGI (NCI-H23 lung): > 25 µM
GI50 (HT29 colon): 8.77 µM
TGI (HT29 colon): > 25 µM
GI50 (MOLT-4 leukemia): 13.5 µM
TGI (MOLT-4 leukemia): > 25 µM
GI50 (HOP-92 NSCLC): 0.434 µM
TGI (HOP-92 NSCLC): > 25 µM
GI50 (SK-MEL-2 melanoma): > 25 µM
TGI (SK-MEL-2 melanoma): > 25 µM
GI50 (HCT-15 colon): > 17.4 µM
TGI (HCT-15 colon): > 25 µM
GI50 (OVCAR-5 ovarian): > 25 µM
TGI (OVCAR-5 ovarian): > 25 µM
GI50 (ACHN renal): 0.642 µM
TGI (ACHN renal): > 25 µM
GI50 (UO-31 renal): 3.96 µM
TGI (UO-31 renal): > 25 µM
GI50 (HS 578T breast): > 21 µM
TGI (HS 578T breast): > 25 µM
GI50 (SK-OV-3 ovarian): 0.534 µM
TGI (SK-OV-3 ovarian): > 25 µM
GI50 (SF-539 CNS): > 15.8 µM
TGI (SF-539 CNS): > 25 µM
GI50 (COLO 205 colon): > 25 µM
TGI (COLO 205 colon): > 25 µM
GI50 (SF-268 CNS): > 25 µM
TGI (SF-268 CNS): > 25 µM
GI50 (NCI-H460 lung): > 25 µM
TGI (NCI-H460 lung): > 25 µM
GI50 (SK-MEL-5 melanoma): > 17.5 µM
TGI (SK-MEL-5 melanoma): > 25 µM
GI50 (SN12C renal): > 17 µM
TGI (SN12C renal): > 25 µM
GI50 (SF-295 CNS): > 20.2 µM
TGI (SF-295 CNS): > 25 µM
GI50 (SNB-19 CNS): > 25 µM
TGI (SNB-19 CNS): > 25 µM
GI50 (NCI-H226 lung): > 25 µM
TGI (NCI-H226 lung): > 25 µM
GI50 (786-0 renal): 16.7 µM
TGI (786-0 renal): > 25 µM
GI50 (HOP-62 NSCLC): > 25 µM
TGI (HOP-62 NSCLC): > 25 µM
GI50 (MDA-MB-435): > 25 µM
TGI (MDA-MB-435): > 25 µM
GI50 (OVCAR-4 ovarian): > 25 µM
TGI (OVCAR-4 ovarian): > 25 µM
GI50 (MALME-3M melanoma): > 25 µM
TGI (MALME-3M melanoma): > 25 µM
GI50 (SR leukemia): 24.9 µM
TGI (SR leukemia): > 25 µM
GI50 (SNB-75 CNS): > 25 µM
TGI (SNB-75 CNS): > 25 µM
GI50 (MCF7 breast): > 25 µM
TGI (MCF7 breast): > 25 µM
